Measurements taken from PubChem BioAssay (NCI).
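Following 48 hours of exposure in 96-well plates, responses at five concentrations were used to interpolate endpoints linearly. GI50: concentration for 50% inhibition of growth. TGI marks complete inhibition of growth.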

Experiments:
Test in all cases: growth of human tumour cells (NCI), 48 h
786-0 renal = test system: 786-0 renal
A498 renal = test system: A498 renal
MOLT-4 leukemia = test system: MOLT-4 leukemia
OVCAR-3 ovarian = test system: OVCAR-3 ovarian
OVCAR-4 ovarian = test system: OVCAR-4 ovarian
SNB-19 CNS = test system: SNB-19 CNS
SR leukemia = test system: SR leukemia
UACC-257 melanoma = test system: UACC-257 melanoma
UO-31 renal = test system: UO-31 renal
SK-MEL-5 melanoma = test system: SK-MEL-5 melanoma

Row | SMILES | TGI (786-0 renal) [µM] | TGI (A498 renal) [µM] | TGI (MOLT-4 leukemia) [µM] | TGI (OVCAR-3 ovarian) [µM] | TGI (OVCAR-4 ovarian) [µM] | TGI (SNB-19 CNS) [µM] | TGI (SR leukemia) [µM] | TGI (UACC-257 melanoma) [µM] | TGI (UO-31 renal) [µM] | GI50 (786-0 renal) [µM] | GI50 (A498 renal) [µM] | GI50 (MOLT-4 leukemia) [µM] | GI50 (OVCAR-3 ovarian) [µM] | GI50 (OVCAR-4 ovarian) [µM] | GI50 (SK-MEL-5 melanoma) [µM] | TGI (SK-MEL-5 melanoma) [µM] | GI50 (SNB-19 CNS) [µM] | GI50 (SR leukemia) [µM] | GI50 (UO-31 renal) [µM] | GI50 (UACC-257 melanoma) [µM]
1 | Oc1cccc(-c2nc3ccccc3s2)c1 | > 100 | > 100 | > 100 | > 100 | > 100 | > 100 | > 100 | > 100 | > 100 |  |  |  |  |  |  |  |  |  |  | 
2 | CC1Cc2c(N(C)C)ncnc2N(C)c2ccc(Cl)cc21 (stereo not given) | 29.3 | 19.2 | 27.3 | 8.88 | > 100 | > 100 | 20.3 |  | 72.4 | 8.26 | 3.53 | 3.52 | 2.51 | 9.76 | 3.65 | 13.8 | 5.81 | 0.463 | 4.4 | 
3 | O=C(CCCCCCCCCCc1ccccc1)c1c(O)cccc1O | 32.3 |  | 61.8 | 63.1 | 57.5 | 41.3 | 63.4 | 38.8 | 38.7 |  |  |  |  |  |  | 30.4 |  |  |  | 
4 | COC(=O)/C(=N\NC(=O)c1ccccc1O)C(C#N)c1ccc(Cl)cc1 (stereo not given) | > 100 | > 100 | > 100 | > 100 | > 100 |  | > 100 | > 100 | 37.3 |  |  |  |  |  |  | > 100 |  |  |  | 
5 | CCOC(=O)/C=C1\Nc2ccccc2C(c2ccccc2)=NC1OC(C)=O (stereo not given) | > 100 | > 100 | > 100 | > 100 | > 100 |  | > 100 | > 100 | > 100 |  |  |  |  |  |  | > 100 |  |  |  | 
6 | CCCCCCCCCCCCCCCC[N+]1(CC)CCCC1 | 2.61 | 2.94 | 2.19 | 1.65 | 2.25 |  | 4.42 | 3.76 | 11.6 | 1.18 | 0.397 | 0.486 | 0.478 | 0.315 | 0.4 | 1.52 |  | 0.655 | 2.79 | 1.58
7 | O=C1c2ccccc2-c2cc3ccccc3c(=O)n21 | > 100 |  |  | > 100 |  | > 100 | > 100 | > 100 | > 100 |  |  |  |  |  |  | > 100 |  |  |  | 
8 | O=C(Cc1nc2ccc(C(=O)c3ccccc3)cc2[nH]c1=O)C(=O)Nc1ccccc1[N+](=O)[O-] | > 100 | > 100 |  | > 100 | > 100 |  | > 100 | > 100 | > 100 |  |  |  |  |  |  | > 100 |  |  |  | 
9 | CN1CCCC1c1cccnc1.O=C(O)c1ccccc1O.O=C([O-])c1ccccc1[OH2+].O=C([O-])c1ccccc1[OH2+].O=C([O-])c1ccccc1[OH2+].[Mn+2] (stereo not given) | > 100 | > 100 | > 100 | 39.3 | > 100 | > 100 |  | > 100 | > 100 | > 100 | > 100 | 19.9 | 11.4 | > 100 | > 100 | > 100 | > 100 |  | > 100 | 37.6
